Measured values from the supplement of paper PMC10307832.

Key:
Test in all cases: relative viability (nuclei count vs DMSO), 5 days (fraction); higher = more cells survive
[1] = compound: CCc1cnn2c(NCc3ccc[n+]([O-])c3)cc(N3CCCC[C@H]3CCO)nc12 [Dinaciclib] + C[C@@H](Oc1cc(-c2cnn(C3CCNCC3)c2)cnc1N)c1c(Cl)ccc(F)c1Cl [Crizotinib] (partner 1 µM)
How it was run: (§1)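 Lung cancer cell lines, seeded in 1536-well plates, were treated the following day by pin tool with a single drug or with five library-drug doses (not always all listed) in √10 steps on top of a fixed anchor-drug dose. Cells were fixed and nuclei stained in one step after 5 days, and nuclei were counted. Relative viability is the nuclei count for treated wells divided by that for vehicle wells, reported as medians of duplicate plates.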

[2] = compound: CCc1cnn2c(NCc3ccc[n+]([O-])c3)cc(N3CCCC[C@H]3CCO)nc12 [Dinaciclib] + C[C@]1(O)C[C@@H](c2nc(-c3ccc4ccc(-c5ccccc5)nc4c3)c3c(N)nccn32)C1 [Linsitinib] (partner 1 µM)
How it was run: as §1

[3] = compound: CCc1cnn2c(NCc3ccc[n+]([O-])c3)cc(N3CCCC[C@H]3CCO)nc12 [Dinaciclib] + CCNC(=O)c1noc(-c2cc(C(C)C)c(O)cc2O)c1-c1ccc(CN2CCOCC2)cc1 [Luminespib] (partner 0.01 µM)
How it was run: as §1

[4] = compound: CCc1cnn2c(NCc3ccc[n+]([O-])c3)cc(N3CCCC[C@H]3CCO)nc12 [Dinaciclib] + O=C(CCCCCCC(=O)Nc1ccccc1)NO [Vorinostat] (partner 1 µM)
How it was run: as §1

[5] = compound: CCc1cnn2c(NCc3ccc[n+]([O-])c3)cc(N3CCCC[C@H]3CCO)nc12 [Dinaciclib]
How it was run: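 Lung cancer cell lines in 1536-well plates were exposed by pinning to five library-drug doses (not always all listed) √10 apart, following an overnight hold at 37 °C. MetaXpress counted Hoechst-stained nuclei from 4× images taken after 5 days without medium change. Viability is the median ratio of treated-well to vehicle-well nuclei across plates. Plates required control CV below 25% and at least one doubling.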

201T
relative viability ([1]; first compound 0.009487 µM): 0.938 | relative viability ([1]; first compound 0.03 µM): 0.739 | relative viability ([1]; first compound 0.09487 µM): 0.265 | relative viability ([1]; first compound 0.3 µM): 0.313 | relative viability ([2]; first compound 0.009487 µM): 1.11 | relative viability ([2]; first compound 0.03 µM): 1 | relative viability ([2]; first compound 0.09487 µM): 0.362 | relative viability ([2]; first compound 0.3 µM): 0.368 | relative viability ([3]; first compound 0.009487 µM): 1.2 | relative viability ([3]; first compound 0.03 µM): 0.342 | relative viability ([3]; first compound 0.09487 µM): 0.24 | relative viability ([3]; first compound 0.3 µM): 0.256 | relative viability ([4]; first compound 0.009487 µM): 1.24 | relative viability ([4]; first compound 0.03 µM): 0.74 | relative viability ([4]; first compound 0.09487 µM): 0.214 | relative viability ([4]; first compound 0.3 µM): 0.213 | relative viability ([5]; 0.009487 µM): 1.09 | relative viability ([5]; 0.03 µM): 0.632 | relative viability ([5]; 0.09487 µM): 0.339 | relative viability ([5]; 0.3 µM): 0.236

A549
relative viability ([1]; first compound 0.009487 µM): 0.724 | relative viability ([1]; first compound 0.03 µM): 0.365 | relative viability ([1]; first compound 0.09487 µM): 0.0408 | relative viability ([1]; first compound 0.3 µM): 0.05 | relative viability ([2]; first compound 0.009487 µM): 0.561 | relative viability ([2]; first compound 0.03 µM): 0.165 | relative viability ([2]; first compound 0.09487 µM): 0.0454 | relative viability ([2]; first compound 0.3 µM): 0.0453 | relative viability ([5]; 0.009487 µM): 0.968 | relative viability ([5]; 0.03 µM): 0.32 | relative viability ([5]; 0.09487 µM): 0.0405 | relative viability ([5]; 0.3 µM): 0.046

A-427
relative viability ([1]; first compound 0.009487 µM): 0.72 | relative viability ([1]; first compound 0.03 µM): 0.12 | relative viability ([1]; first compound 0.09487 µM): 0.057 | relative viability ([1]; first compound 0.3 µM): 0.0481 | relative viability ([2]; first compound 0.009487 µM): 1.09 | relative viability ([2]; first compound 0.03 µM): 0.512 | relative viability ([2]; first compound 0.09487 µM): 0.0865 | relative viability ([2]; first compound 0.3 µM): 0.0756 | relative viability ([3]; first compound 0.009487 µM): 0.554 | relative viability ([3]; first compound 0.03 µM): 0.0941 | relative viability ([3]; first compound 0.09487 µM): 0.0692 | relative viability ([3]; first compound 0.3 µM): 0.0782 | relative viability ([4]; first compound 0.009487 µM): 0.699 | relative viability ([4]; first compound 0.03 µM): 0.216 | relative viability ([4]; first compound 0.09487 µM): 0.111 | relative viability ([4]; first compound 0.3 µM): 0.117 | relative viability ([5]; 0.009487 µM): 0.828 | relative viability ([5]; 0.03 µM): 0.144 | relative viability ([5]; 0.09487 µM): 0.084 | relative viability ([5]; 0.3 µM): 0.0857

ABC-1
relative viability ([1]; first compound 0.009487 µM): 1.16 | relative viability ([1]; first compound 0.03 µM): 0.178 | relative viability ([1]; first compound 0.09487 µM): 0.11 | relative viability ([1]; first compound 0.3 µM): 0.0832 | relative viability ([2]; first compound 0.009487 µM): 0.665 | relative viability ([2]; first compound 0.03 µM): 0.278 | relative viability ([2]; first compound 0.09487 µM): 0.166 | relative viability ([2]; first compound 0.3 µM): 0.126 | relative viability ([3]; first compound 0.009487 µM): 0.581 | relative viability ([3]; first compound 0.03 µM): 0.209 | relative viability ([3]; first compound 0.09487 µM): 0.173 | relative viability ([3]; first compound 0.3 µM): 0.178 | relative viability ([4]; first compound 0.009487 µM): 0.845 | relative viability ([4]; first compound 0.03 µM): 0.419 | relative viability ([4]; first compound 0.09487 µM): 0.297 | relative viability ([4]; first compound 0.3 µM): 0.246 | relative viability ([5]; 0.009487 µM): 0.757 | relative viability ([5]; 0.03 µM): 0.237 | relative viability ([5]; 0.09487 µM): 0.165 | relative viability ([5]; 0.3 µM): 0.116

BEN
relative viability ([1]; first compound 0.009487 µM): 1 | relative viability ([1]; first compound 0.03 µM): 0.512 | relative viability ([1]; first compound 0.09487 µM): 0.18 | relative viability ([1]; first compound 0.3 µM): 0.215 | relative viability ([2]; first compound 0.009487 µM): 1.01 | relative viability ([2]; first compound 0.03 µM): 0.68 | relative viability ([2]; first compound 0.09487 µM): 0.216 | relative viability ([2]; first compound 0.3 µM): 0.21 | relative viability ([3]; first compound 0.009487 µM): 0.323 | relative viability ([3]; first compound 0.03 µM): 0.221 | relative viability ([3]; first compound 0.09487 µM): 0.174 | relative viability ([3]; first compound 0.3 µM): 0.133 | relative viability ([4]; first compound 0.009487 µM): 0.67 | relative viability ([4]; first compound 0.03 µM): 0.63 | relative viability ([4]; first compound 0.09487 µM): 0.345 | relative viability ([4]; first compound 0.3 µM): 0.308 | relative viability ([5]; 0.009487 µM): 1.06 | relative viability ([5]; 0.03 µM): 0.812 | relative viability ([5]; 0.09487 µM): 0.214 | relative viability ([5]; 0.3 µM): 0.257

CAL-12T
relative viability ([1]; first compound 0.009487 µM): 0.503 | relative viability ([1]; first compound 0.03 µM): 0.0856 | relative viability ([1]; first compound 0.09487 µM): 0.0861 | relative viability ([1]; first compound 0.3 µM): 0.103 | relative viability ([2]; first compound 0.009487 µM): 0.452 | relative viability ([2]; first compound 0.03 µM): 0.175 | relative viability ([2]; first compound 0.09487 µM): 0.112 | relative viability ([2]; first compound 0.3 µM): 0.145 | relative viability ([3]; first compound 0.009487 µM): 0.133 | relative viability ([3]; first compound 0.03 µM): 0.085 | relative viability ([3]; first compound 0.09487 µM): 0.0815 | relative viability ([3]; first compound 0.3 µM): 0.0961 | relative viability ([4]; first compound 0.009487 µM): 0.511 | relative viability ([4]; first compound 0.03 µM): 0.0992 | relative viability ([4]; first compound 0.09487 µM): 0.1 | relative viability ([4]; first compound 0.3 µM): 0.131 | relative viability ([5]; 0.009487 µM): 0.479 | relative viability ([5]; 0.03 µM): 0.163 | relative viability ([5]; 0.09487 µM): 0.121 | relative viability ([5]; 0.3 µM): 0.137

COR-L23
relative viability ([1]; first compound 0.009487 µM): 0.456 | relative viability ([1]; first compound 0.03 µM): 0.0842 | relative viability ([1]; first compound 0.09487 µM): 0.0684 | relative viability ([1]; first compound 0.3 µM): 0.0575 | relative viability ([2]; first compound 0.009487 µM): 0.736 | relative viability ([2]; first compound 0.03 µM): 0.0901 | relative viability ([2]; first compound 0.09487 µM): 0.0662 | relative viability ([2]; first compound 0.3 µM): 0.0681 | relative viability ([3]; first compound 0.009487 µM): 0.226 | relative viability ([3]; first compound 0.03 µM): 0.0887 | relative viability ([3]; first compound 0.09487 µM): 0.0655 | relative viability ([3]; first compound 0.3 µM): 0.0681 | relative viability ([4]; first compound 0.009487 µM): 0.41 | relative viability ([4]; first compound 0.03 µM): 0.0812 | relative viability ([4]; first compound 0.09487 µM): 0.087 | relative viability ([4]; first compound 0.3 µM): 0.0797 | relative viability ([5]; 0.009487 µM): 0.891 | relative viability ([5]; 0.03 µM): 0.162 | relative viability ([5]; 0.09487 µM): 0.0991 | relative viability ([5]; 0.3 µM): 0.103

COR-L 105
relative viability ([1]; first compound 0.009487 µM): 0.923 | relative viability ([1]; first compound 0.03 µM): 0.192 | relative viability ([1]; first compound 0.09487 µM): 0.171 | relative viability ([1]; first compound 0.3 µM): 0.189 | relative viability ([2]; first compound 0.009487 µM): 0.55 | relative viability ([2]; first compound 0.03 µM): 0.239 | relative viability ([2]; first compound 0.09487 µM): 0.245 | relative viability ([2]; first compound 0.3 µM): 0.249 | relative viability ([3]; first compound 0.009487 µM): 0.509 | relative viability ([3]; first compound 0.03 µM): 0.214 | relative viability ([3]; first compound 0.09487 µM): 0.229 | relative viability ([3]; first compound 0.3 µM): 0.169 | relative viability ([4]; first compound 0.009487 µM): 0.679 | relative viability ([4]; first compound 0.03 µM): 0.444 | relative viability ([4]; first compound 0.09487 µM): 0.302 | relative viability ([4]; first compound 0.3 µM): 0.302 | relative viability ([5]; 0.009487 µM): 0.599 | relative viability ([5]; 0.03 µM): 0.285 | relative viability ([5]; 0.09487 µM): 0.264 | relative viability ([5]; 0.3 µM): 0.29
